Data published in patent US20250051350A1, “Dihydroartemisinin derivatives and the treatment of fibrotic diseases” (GreenStone Biosciences, Inc., priority 2023, published 2025).
≈ marks a conversion by molar mass, not a printed value. Read-outs that look alike come from different tables or passages of the source. Values belong to the compound of their own block, whether it stands above or below them.

Columns and labels:
in vitro = in vitro ADME; conditions: for fraction unbound: plasma
Protocol: Plasma protein binding assays were conducted in triplicate for compounds PT-2, PT-14, PT-28, and PT-30, with artesunate, DHA, and warfarin as comparators.

[1] = system: Induced pluripotent stem cell-derived cardiac fibroblasts (ACTA2-GFP); assay: Antifibrotic effects in TGF-β-activated iPSC-derived cardiac fibroblasts (ACTA2-GFP fluorescence); format: cell-based; conditions: for reduction in fluorescence (fibrotic marker ACTA2-GFP) / IC50: activated with TGF-β, 48 hours; for reduction in fluorescence (fibrotic marker ACTA2-GFP): various concentrations; for IC50: simultaneous treatment, ACTA2-GFP fluorescence, read-out: IC50, reduction in fluorescence; for antifibrotic efficacy in this model: TGF-β-activated iPSC-derived cardiac fibroblasts
Text: Induced pluripotent stem cell-derived cardiac fibroblasts were constructed containing a fusion of the alpha-smooth muscle actin to the green fluorescent protein (ACTA2-GFP) construct. ACTA2 is a myofibroblast marker, such that the fibroblasts fluoresce with an intensity dependent on the extent of fibrosis.

[2] = Intravenous and oral pharmacokinetics in mice; format: in vivo; conditions: male C57BL/6J mice
Protocol: The intravenous (IV) and oral (PO) pharmacokinetics of the PT compounds were measured in 6-10 week-old male C57BL/6J mice, using three mice/group. The test compounds were formulated in an appropriate water-based vehicle to give a clear solution for IV administration, or a clear solution or uniform suspension for PO administration. Animals were dosed within 4 hours of the preparation of the formulations; with the dose volume being determined by the animal's body weight measured on the morning of the dosing day. Blood samples (about 25 μL per time point) were taken at 5 and 15 minutes and 1, 3, and 5 hours after dosing, into pre-chilled EDTA-K2 tubes and kept on wet ice until centrifugation. The tubes were centrifuged at 3200×g at about 4° C. for 10 minutes, and the plasma analyzed by LC-MS/MS.

[3] = system: bleomycin injury mouse skin model; assay: Bleomycin injury mouse skin model; format: in vivo; conditions: topical administration (50 μL, 100 μM in 0.1% DMSO/PBS)
[4] = system: CCl4 injury mouse liver model; assay: CCl4 injury mouse liver model; format: in vivo; conditions: oral administration
[5] = system: MD2 signaling pathway (HEK Blue-TLR4 cells); assay: HEK Blue-TLR4 assay (MD2 pathway); format: cell-based; conditions: 1 h preincubation, 10 ng/mL lipopolysaccharide, read after 20 hours at 655 nm
Protocol: HEK Blue-TLR4 cells were plated in detection media, preincubated with vehicle or PT-2, PT-14, or PT-30 dissolved in vehicle (with artesunate, DHA, and artemisinin comparators) for 1 h, then co-stimulated with 10 ng/mL lipopolysaccharide. Reporter activity was read after 20 hours at 655 nm in a spectrophotometer. The PT compounds were active in this assay, showing that they inhibit the MD2 signaling pathway.

[6] = system: primary pulmonary fibroblasts; assay: Antifibrotic efficacy in primary pulmonary fibroblasts; format: cell-based
Solubility of PT-30 = format: physicochemical
Protocol: (§1) PT-30, DHA 5-oxo-2,6-diazaspiro[3.4]octane-2-carboxylate, (3R,5aS,6R,8aS,9R,12S,12aR)-decahydro-3,6,9-trimethyl-3,12-epoxy-12H-pyrano[4,3-j]-1,2-benzodioxepin-10-yl 5-oxo-2,6-diazaspiro[3.4]octane-2-carboxylate, was a white crystalline solid as prepared. […] PT-30 had low solubility (<0.1 mg/mL) in aqueous acidic conditions and in simulated gastric fluid, and a solubility of about 0.7 mg/mL in fasted-state and fed-state simulated intestinal fluids.

[7] = Solid-state stability of PT-30; format: physicochemical
Protocol: as §1

Hygroscopicity of PT-30 = format: physicochemical; conditions: from 40% to 95% RH
Protocol: as §1

[8] = system: bleomycin-induced pulmonary fibrosis model; conditions: bleomycin-induced pulmonary fibrosis model in rats; cited from earlier work

recovery (in vitro; human): 102%
fraction unbound (in vitro; human): 0.108
recovery (in vitro; mouse): 105%
fraction unbound (in vitro; mouse): 0.1
Compound: C[C@H]1[C@@H](O)OC2O[C@@]3(C)CC[C@H]4[C@H](C)CC[C@@H]1[C@@]24OO3 (stereo in doubt) [DHA, (3R,5aS,6R,8aS,9R,12S,12aR)-decahydro-3,6,9-trimethyl-3,12-epoxy-12H-pyrano[4,3-j]-1,2-benzodioxepin-10-ol]
reduction in fluorescence (fibrotic marker ACTA2-GFP) [1]: dose-dependent reduction in fluorescence

Compound: CC1CCC2C(C)C(OC(=O)N3CC(C)(C(N)=O)C3)OC3OC4(C)CCC1C32OO4 (stereo not shown) [PT-27, DHA 3-methyl-3-carbamoylazetidine-1-carboxylate]
IV AUC0-last ([2]; IV, plasma): 3300 ng·h/mL
IV Clearance ([2]; IV, plasma): 47 mL/min/kg
IV T1/2 ([2]; IV, plasma): 15 min
IV VD,ss ([2]; IV, plasma): 1.0 L/kg
PO Bioavailability ([2]; PO): 41%
PO AUC0-last ([2]; PO, plasma): 14400 ng·h/mL
PO T1/2 ([2]; PO, plasma): 78 min

Compound: CC(CO)C(=O)OC1OC2OC3(C)CCC4C(C)CCC(C1C)C24OO3 (stereo not shown) [PT-1, DHA 3-hydroxy-2-methylpropionate]
IV AUC0-last ([2]; IV, plasma): 100 ng·h/mL
IV Clearance ([2]; IV, plasma): 1280 mL/min/kg
IV T1/2 ([2]; IV, plasma): 7.8 min
IV VD,ss ([2]; IV, plasma): 9.0 L/kg
PO Bioavailability ([2]; PO): 1.3%
PO AUC0-last ([2]; PO, plasma): 20 ng·h/mL
PO T1/2 ([2]; PO, plasma): 22.2 min
IC50 [1]: 2.3 µM

bioavailability ([2]; mouse, plasma, PO): 73%
clearance ([2]; mouse, IV, plasma): 30 mL/min/kg
AUC(0-t) ([2]; mouse, IV, plasma, read-out: IV AUC0-last): 5300 ng·h/mL
half-life ([2]; mouse, IV, plasma, read-out: IV T1/2 (converted)): 13.2 min
Vd ([2]; mouse, IV, plasma, read-out: IV VD,ss): 0.6 L/kg
AUC(0-t) ([2]; mouse, PO, plasma, read-out: PO AUC0-last): 40900 ng·h/mL
half-life ([2]; mouse, PO, plasma, read-out: PO T1/2 (converted)): 20.4 min
recovery (in vitro; human): 84.9%
fraction unbound (in vitro; human): 0.455
recovery (in vitro; mouse): 87.6%
fraction unbound (in vitro; mouse): 0.079
solubility (Solubility of PT-30; aqueous acidic conditions, aqueous buffer): < 100 µg/mL
solubility in organic solvents (Solubility of PT-30; common organic solvents, greatest in methanol and tetrahydrofuran): soluble in common organic solvents
solubility (Solubility of PT-30; fasted-state simulated intestinal fluid, fassif): ~700 µg/mL (≈ 1600 µM)
solubility (Solubility of PT-30; fed-state simulated intestinal fluid, fessif): ~700 µg/mL (≈ 1600 µM)
solubility (Solubility of PT-30; simulated gastric fluid): < 100 µg/mL
hygroscopicity, water uptake (Hygroscopicity of PT-30): 0.5%
Compound: C[C@@H]1CC[C@H]2[C@@H](C)C(OC(=O)N3CC4(CCNC4=O)C3)O[C@H]3O[C@@]4(C)CC[C@@H]1[C@]32OO4 (stereo partly drawn) [PT-30, (3R,5aS,6R,8aS,9R,12S,12aR)-decahydro-3,6,9-trimethyl-3,12-epoxy-12H-pyrano[4,3-j]-1,2-benzodioxepin-10-yl 5-oxo-2,6-diazaspiro[3.4]octane-2-carboxylate]
antifibrotic efficacy [3]: demonstrated antifibrotic efficacy
antifibrotic efficacy [4]: demonstrated antifibrotic efficacy
activity in HEK Blue-TLR4 reporter assay (inhibition of MD2 signaling pathway) [5]: active
antifibrotic efficacy, effect on acta2, colla1, and CTGF [6]: demonstrated antifibrotic efficacy
antifibrotic efficacy in this model [1]: demonstrated antifibrotic efficacy
chemical and crystal form stability ([7]; 25° C./60% RH for 1 week): chemically stable without crystal form change
chemical and crystal form stability ([7]; 40° C./75% RH for 1 week): chemically stable without crystal form change

recovery (in vitro; human): 98%
fraction unbound (in vitro; human): 0.233
recovery (in vitro; mouse): 53.4%
fraction unbound (in vitro; mouse): 0.278
Compound: C[C@H]1[C@H](OC(=O)CCC(=O)O)O[C@@H]2O[C@@]3(C)CC[C@H]4[C@H](C)CC[C@@H]1[C@@]24OO3 [artesunate]
antifibrotic activity [8]: active as an antifibrotic agent
IC50 ([1]; Cardiac fibroblast): 2.8 µM
reduction in fluorescence (fibrotic marker ACTA2-GFP) [1]: dose-dependent reduction in fluorescence

recovery (in vitro; human): 91.1%
fraction unbound (in vitro; human): 0.003
recovery (in vitro; mouse): 94.5%
fraction unbound (in vitro; mouse): 0.007
Compound: CC(=O)CC(c1ccccc1)c1c(O)c2ccccc2oc1=O (stereo not shown) [warfarin]

Compound: CC1CCC2C(C)C(OC(=O)N3CC(C)(C(=O)O)C3)OC3OC4(C)CCC1C32OO4 (stereo not shown) [PT-25, DHA 3-carboxy-3-methylazetidine-1-carboxylate]
IV AUC0-last ([2]; IV, plasma): 2200 ng·h/mL
IV Clearance ([2]; IV, plasma): 74 mL/min/kg
IV T1/2 ([2]; IV, plasma): 16.2 min
IV VD,ss ([2]; IV, plasma): 1.3 L/kg
PO Bioavailability ([2]; PO): 17%
PO AUC0-last ([2]; PO, plasma): 3700 ng·h/mL
PO T1/2 ([2]; PO, plasma): 113 min

Compound: CC1CCC2C(C)C(OC(=O)N3CC(C)(O)C3)OC3OC4(C)CCC1C32OO4 (stereo not shown) [PT-14, DHA 3-hydroxy-3-methylazetidine-1-carboxylate]
IV AUC0-last ([2]; IV, plasma): 2200 ng·h/mL
IV Clearance ([2]; IV, plasma): 75 mL/min/kg
IV T1/2 ([2]; IV, plasma): 10.8 min
IV VD,ss ([2]; IV, plasma): 1.1 L/kg
PO Bioavailability ([2]; PO): 92%
PO AUC0-last ([2]; PO, plasma): 20500 ng·h/mL
PO T1/2 ([2]; PO, plasma): 39.6 min
activity in HEK Blue-TLR4 reporter assay (inhibition of MD2 signaling pathway) [5]: active
IC50 [1]: 0.57 µM

Compound: CNC(=O)C1(C)CN(C(=O)O[C@H]2O[C@@H]3O[C@@]4(C)CC[C@H]5[C@H](C)CC[C@@H]([C@H]2C)[C@@]35OO4)C1 [PT-28, DHA 3-methyl-3-(methylcarbamoyl)azetidine-1-carboxylate]
IV AUC0-last ([2]; IV, plasma): 4200 ng·h/mL
IV Clearance ([2]; IV, plasma): 38 mL/min/kg
IV T1/2 ([2]; IV, plasma): 14.4 min
IV VD,ss ([2]; IV, plasma): 0.8 L/kg
PO Bioavailability ([2]; PO): 112%
PO AUC0-last ([2]; PO, plasma): 48800 ng·h/mL
PO T1/2 ([2]; PO, plasma): 28.8 min
antifibrotic efficacy in this model [1]: demonstrated antifibrotic efficacy

Compound: CC1CCC2C(C)C(OC(=O)CC(C)(C)O)OC3OC4(C)CCC1C32OO4 (stereo not shown) [PT-4, DHA 3-hydroxy-3-methylbutanoate]
IV AUC0-last ([2]; IV, plasma): 600 ng·h/mL
IV Clearance ([2]; IV, plasma): 280 mL/min/kg
IV T1/2 ([2]; IV, plasma): 6.6 min
IV VD,ss ([2]; IV, plasma): 2.0 L/kg
PO Bioavailability ([2]; PO): 11%
PO AUC0-last ([2]; PO, plasma): 500 ng·h/mL
PO T1/2 ([2]; PO, plasma): 10.8 min
IC50 [1]: 5.6 µM

Compound: CC1CCC2C(C)C(OC(=O)N3CC(C)(C(=O)N(C)C)C3)OC3OC4(C)CCC1C32OO4 (stereo not shown) [PT-29, DHA 3-methyl-3-(dimethylcarbamoyl)azetidine-1-carboxylate]
IV AUC0-last ([2]; IV, plasma): 2000 ng·h/mL
IV Clearance ([2]; IV, plasma): 82 mL/min/kg
IV T1/2 ([2]; IV, plasma): 7.8 min
IV VD,ss ([2]; IV, plasma): 0.9 L/kg
PO Bioavailability ([2]; PO): 34%
PO AUC0-last ([2]; PO, plasma): 6800 ng·h/mL
PO T1/2 ([2]; PO, plasma): 64.8 min

Compound: CC1CCC2C(C)C(OC(=O)N3CC(O)C3)OC3OC4(C)CCC1C32OO4 (stereo not shown) [PT-13, DHA 3-hydroxyazetidine-1-carboxylate]
IV AUC0-last ([2]; IV, plasma): 2200 ng·h/mL
IV Clearance ([2]; IV, plasma): 76 mL/min/kg
IV T1/2 ([2]; IV, plasma): 7.2 min
IV VD,ss ([2]; IV, plasma): 0.9 L/kg
PO Bioavailability ([2]; PO): 64%
PO AUC0-last ([2]; PO, plasma): 14100 ng·h/mL
PO T1/2 ([2]; PO, plasma): 41.4 min
IC50 [1]: 2.6 µM

Compound: C[C@H]1[C@@H](OC(=O)C(C)(C)CO)O[C@@H]2O[C@@]3(C)CC[C@H]4[C@H](C)CC[C@@H]1[C@@]24OO3 [PT-2, DHA 3-hydroxy-2,2-dimethylpropanoate]
IV AUC0-last ([2]; IV, plasma): 1200 ng·h/mL
IV Clearance ([2]; IV, plasma): 140 mL/min/kg
IV T1/2 ([2]; IV, plasma): 6 min
IV VD,ss ([2]; IV, plasma): 1.3 L/kg
PO Bioavailability ([2]; PO): 27%
PO AUC0-last ([2]; PO, plasma): 3200 ng·h/mL
activity in HEK Blue-TLR4 reporter assay (inhibition of MD2 signaling pathway) [5]: active
IC50 [1]: 0.88 µM

Compound: CC1CCC2C(C)C(OC(=O)N(C)CCO)OC3OC4(C)CCC1C32OO4 (stereo not shown) [PT-20, DHA (2-hydroxyethyl)(methyl)carbamate]
IV AUC0-last ([2]; IV, plasma): 2400 ng·h/mL
IV Clearance ([2]; IV, plasma): 69 mL/min/kg
IV T1/2 ([2]; IV, plasma): 14.4 min
IV VD,ss ([2]; IV, plasma): 0.8 L/kg
PO Bioavailability ([2]; PO): 73%
PO AUC0-last ([2]; PO, plasma): 17700 ng·h/mL
PO T1/2 ([2]; PO, plasma): 31.8 min

Compound: CC1CCC2C(C)C(OC(=O)N3CC(C)(N)C3)OC3OC4(C)CCC1C32OO4 (stereo not shown) [PT-24, DHA 3-amino-3-methylazetidine-1-carboxylate]
IV AUC0-last ([2]; IV, plasma): 2200 ng·h/mL
IV Clearance ([2]; IV, plasma): 77 mL/min/kg
IV T1/2 ([2]; IV, plasma): 15.6 min
IV VD,ss ([2]; IV, plasma): 2.2 L/kg
PO Bioavailability ([2]; PO): 123%
PO AUC0-last ([2]; PO, plasma): 24300 ng·h/mL
PO T1/2 ([2]; PO, plasma): 67.2 min
